Source: paper PMC6274922, “Defined Small Molecules Produced by Himalayan Medicinal Plants Display Immunomodulatory Properties” (International Journal of Molecular Sciences, 2018)
Converted amounts (≈) assume the structure as drawn.

Columns and labels:
[1] = test system: immortalized non-cancerous H69 human cholangiocyte cell line; assay: Cytotoxicity by xCELLigence RTCA system
Procedure: (§1) The immortalized non-malignant human cholangiocyte cell line H69 is a SV40-transformed human bile duct epithelial cell line originally derived from a normal liver harvested for transplantation. […] Cytotoxicity screening of the test compounds against the H69 cell line was performed using an xCELLigence SP system (ACEA Biosciences Inc., San Diego, CA, USA) as described by us previously. All experiments were carried out as per the manufacturer’s instructions with 0.25–60 min read intervals using the real time cell assay (RTCA) software (ACEA Biosciences Inc., USA). All assays were conducted in triplicate. Inter-well spaces were filled with 100 µL of culture medium or PBS to prevent evaporation. The E-plates containing cells were seeded at 5000 cells/well and incubated overnight at 37 °C with 5% CO2. The cells were then treated with prepared concentrations (50, 100, 500 µg/mL) of the test compounds and the viability of the cells was monitored continually for 24 h.
(§2) We determined the IC50 values of test compounds based on the normalised cell index (nCI) for cells, as described previously. Briefly, the 24 h nCI relative to the negative DMSO treated controls (deemed 100%) on the y-axis was plotted against the log concentration value x-axis.

in vitro = details: human
Procedure: as §1, §2

[2] = test system: DC2.4 murine dendritic cell line; assay: Gene expression analysis by RT-qPCR in DC2.4 cells; assay type: cell-based, mouse; details: for modulation of gene expression, in words: DC2.4 cells, mRNA correlated with FACS RFI (Figure 3)
Procedure: The following day, cells were harvested and 20,000 live cells from each condition were sorted by FACS into RLT buffer and RNA extracted for mRNA analysis by RT-qPCR. The relative gene expression for each gene was calculated for each compound and compared to the media control. We then correlated gene expression with protein expression represented by the FACS RFI (Figure 3). […] The SUM of the changes for all genes and proteins relative to the media-only control is summarized in the bottom right corner of Figure 3 SUM.
DC2.4 cells were co-cultured overnight with test compounds as described above. The following day, cells were harvested and 20,000 live cells from each condition were sorted by FACS into RLT buffer and stored at −70 °C. On the day of extraction, frozen cell lysates were thawed quickly on ice and mRNA was extracted using the RNEasy micro kit (Qiagen, Chadstone Centre, VIC, Australia) according to the manufacturer’s instructions. cDNA was synthesized using oligo-dT and AMVRT (Promega, Sydney, Australia) according to the manufacturer’s instructions. Gene expression was measured using individual Taqman gene expression assays (Applied Biosystems, Foster City, CA, USA) and Platinum Taq polymerase (Life Technologies, Carlsbad, CA, USA) in a 15 μL volume reaction using a Rotorgene 3000 PCR machine (Corbett Research, Mortlake, Australia) with the following conditions: 2 min at 50 °C for calibration of fluorescence gain values, then denaturing at for 2 min at 95 °C, followed by 45 cycles of 5 s at 95 °C and 30 s at 60 °C. Gene expression was quantified relative to a standard curve generated from a titration of cloned cDNA and relative gene expression was calculated by dividing the expression value of the test sample by that of the cells grown in media only. All assays were conducted in triplicate.

[3] = test system: DC2.4 murine dendritic cell line; assay type: cell-based; details: for Median Fluorescence Intensity (MFI) of surface MHC-I expression: representative FACS plots, DC2.4 cells, media only control MFI 732
[4] = test system: multi-drug resistant Plasmodium falciparum; details: cited from earlier work
lung carcinoma (A549) = test system: lung carcinoma (A549); design: method as in PMID 29555944; details: cited from earlier work
HT-29 cancer cell lines = test system: HT-29 cancer cell lines; design: method as in PMID 29555944; details: cited from earlier work
[5] = test system: A431 epithelial cancer cell lines; design: method as in PMID 9584334; details: in vitro; cited from earlier work
HL60 = test system: HL60; design: method as in PMID 9584334; details: in vitro; cited from earlier work
[6] = test system: DC2.4 murine dendritic cell line; assay: Combined FACS + PCR score of immunomodulation in DC2.4 cells; assay type: cell-based, mouse
Procedure: The following day, cells were harvested and 20,000 live cells from each condition were sorted by FACS into RLT buffer and RNA extracted for mRNA analysis by RT-qPCR. The relative gene expression for each gene was calculated for each compound and compared to the media control.
DC2.4 cells (4000 cells in exponential phase/200 µL) were cultured in 96-well flat bottom plates overnight with a titration of the test compound in media (stock concentration of 1 mg/mL and further titrated in tissue culture media at 4 mid-log dilutions starting at 100 µg/mL) or media only (modified DMEM, 50 µM 2-mercaptoethanol and 216 mg/L L-glutamine, 10% heat-inactivated FCS). Each compound was tested twice, in replicate assays. […] The RFI (relative fluorescence intensity) for each parameter was calculated by dividing the median fluorescence intensity (MFI) of the test sample by that of the control (media-only) samples.
DC2.4 cells were co-cultured overnight with test compounds as described above. […] Gene expression was quantified relative to a standard curve generated from a titration of cloned cDNA and relative gene expression was calculated by dividing the expression value of the test sample by that of the cells grown in media only. […]

## CC#CC#C/C=C1\C=CC2(CCCO2)O1 (centres unmarked) [Compound 5, (E)-spiroether]
[1]; H69 cells, from 6 h with 100 µg/mL
  cell death: 96.5%
In vitro
  IC50 at 24 h: < 1 µg/mL

## O=c1cc(-c2ccc(O)c(O)c2)oc2cc(O)cc(O)c12 [Compound 6, luteolin]
In vitro
  IC50 at 24 h: 30 µg/mL (≈ 105 µM)

## COc1cc2c(cc1O)[C@@H]1Cc3ccc(OC)c(O)c3CN1CC2 [Compound 10, scoulerine]
[2]
  modulation of gene expression, in words: strong up-regulator of several important genes including MHC-I, CD80 and CD86
[3]
  Median Fluorescence Intensity (MFI) of surface MHC-I expression: 1582
[4]
  antimalarial activity, in words: potent antimalarial drug lead compound
Lung carcinoma (A549)
  cytotoxic activity, in words: significant cytotoxic activity
HT-29 cancer cell lines
  cytotoxic activity, in words: significant cytotoxic activity

## COc1c2ccoc2cc2oc(=O)ccc12 [Compound 13, bergapten]
In vitro
  IC50 at 24 h: 126 µg/mL (≈ 585 µM)
[2]
  modulation of gene expression, in words: suppression of expression of some genes, and notably MHC-I at both the gene and protein level
[3]
  Median Fluorescence Intensity (MFI) of surface MHC-I expression: 304
[5]
  anti-proliferative activity, in words: anti-proliferative activity
HL60
  anti-proliferative activity, in words: anti-proliferative activity

## protopine [Compound 8]
[1]
  IC50 (cytotoxicity): 9 µg/mL
[1]; H69 cells, at 24 h
  cell toxicity: 68%
[1]; H69 cells, from 6 h
  cell toxicity: 23%
[2]; sum of the relative expression of the 7 genes
  PCR SUM: 10.01
[3]; sum of the RFI of the 7 surface markers
  FACS SUM: 9.95
[6]; average of FACS and PCR values
  Ave.: 1.43
[6]; sum of all FACS RFI and PCR relative expression values
  SUM FACS + PCR: 19.96
